Measurements reported in patent publication US11000033B2, “Ketone or oxime compound, and herbicide” (NISSAN CHEMICAL CORPORATION, priority 2014, dated 2021).

Legend:
Type in all cases: in vivo
[1] = test system: Echinochloa oryzacola Vasing.; assay: Test Example 1: herbicidal activity, application before weed generation in submerged conditions (symbol A); settings: application herbicide amount 320 g/ha
Procedure, shortened: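 Compound emulsion was diluted to a set herbicide amount and applied to the water surface on the sowing day, into submerged (4 cm) alluvial-soil pots sown with mixed weed seeds and transplanted 2.5-leaf rice. Pots were held in a 25–30 °C greenhouse, and weeds were scored 0–5 by herbicidal ratio after 3 weeks.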

[2] = test system: Echinochloa oryzacola Vasing.; assay: Test Example 2: herbicidal activity, application during weed generation in submerged conditions (symbol A); settings: Table 23; application herbicide amount 320 g/ha; grade 0-5 by criteria of Test Example 1
Procedure, shortened: (§1)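 Treatment timing was the one- to two-leaf stage, with diluted emulsifiable compound dropped onto the paddy water (depth 4 cm) over alluvial soil. All three species grew from a mixed sowing in a 25° C. to 30° C. greenhouse. Injury was judged by eye 3 weeks on.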

Monochoria vaginalis = assay: Test Example 2: herbicidal activity, application during weed generation in submerged conditions (symbol C); settings: Table 23; application herbicide amount 320 g/ha; grade 0-5 by criteria of Test Example 1
Procedure, shortened: as §1

Cyperus difformis = assay: Test Example 3: herbicidal effect by foliage application, Wagner pot (symbol E); settings: application herbicide amount 320 g/ha
Procedure, shortened: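 The compound, formulated as an emulsion and diluted with water to a predetermined rate, is applied uniformly to leaves of two-week-old seedlings growing in submerged alluvial soil at 25–30 °C. Rice is included. Each plant is assessed 3 weeks later using defined criteria.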

[3] = test system: Echinochloa crus-galli var. crus-galli; assay: Test Example 4: herbicidal effect by soil treatment (symbol H); settings: application herbicide amount 320 g/ha
Procedure, shortened: (§2)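 Seeds were sown in sterilized diluvial soil, covered with about 1.5 cm of soil, and the soil surface was sprayed with a water-diluted emulsion of the compound at a predetermined rate. Plants grew in a greenhouse at 25° C. to 30° C.; effects were scored visually 3 weeks after application.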

Alopecurus myosuroides [4] = assay: Test Example 4: herbicidal effect by soil treatment (symbol J); settings: application herbicide amount 320 g/ha
Procedure, shortened: as §2

soybean = assay: Test Example 4: effect on crop by soil treatment (symbol d); settings: application herbicide amount 320 g/ha
Procedure, shortened: (§3)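 Grown at 25° C. to 30° C. in a greenhouse, the crops came from seed sown spot-wise in sterilized diluvial soil under roughly 1.5 cm of covering soil.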

wheat [5] = assay: Test Example 4: effect on crop by soil treatment (symbol e); settings: application herbicide amount 320 g/ha
Procedure, shortened: as §3

beet = assay: Test Example 4: effect on crop by soil treatment (symbol f); settings: application herbicide amount 320 g/ha
Procedure, shortened: as §3

Alopecurus myosuroides [6] = assay: Test Example 5: herbicidal effect by foliage application, plastic box (symbol J); settings: 320 g/ha, 3 weeks after application
Procedure, shortened: (§4)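 Visual herbicidal score, taken three weeks post-application, of seedlings sprayed on the foliage with water-diluted emulsion at a predetermined amount; plants were 14 days old, greenhouse-raised at 25° C. to 30° C.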

Amaranthus retroflexus = assay: Test Example 5: herbicidal effect by foliage application, plastic box (symbol N); settings: 320 g/ha, 3 weeks after application
Procedure, shortened: as §4

wheat [7] = assay: Test Example 5: effect on crop by foliage application, plastic box (symbol e); settings: 320 g/ha, 3 weeks after application
Procedure, shortened: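 Plants were raised from seed in a greenhouse (25° C. to 30° C.) after sowing in a plastic box of sterilized diluvial soil.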

Compound	Herbicidal effect grade, A: Echinochloa oryzacola Vasing. [1]	Herbicidal effect grade, A: Echinochloa oryzacola Vasing. [2]	Herbicidal effect grade, C: Monochoria vaginalis (Monochoria vaginalis)	herbicidal effect on E, grade 0-5 (Cyperus difformis)	H: Echinochloa crus-galli var. crus-galli, herbicidal effect grade [3]	J: Alopecurus myosuroides, herbicidal effect grade (Alopecurus myosuroides [4])	d: soybean, effect on crop grade (soybean)	e: wheat, effect on crop grade (wheat [5])	f: beet, effect on crop grade (beet)	J: Alopecurus myosuroides, herbicidal effect grade (Alopecurus myosuroides [6])	N: Amaranthus retroflexus, herbicidal effect grade (Amaranthus retroflexus)	e: wheat, effect on crop grade (wheat [7])	J: Alopecurus myosuroides, herbicidal effect (criteria of Test Example 1) (Alopecurus myosuroides [6])	N: Amaranthus retroflexus, herbicidal effect (criteria of Test Example 1) (Amaranthus retroflexus)	e: wheat, effect on crop (criteria of Test Example 1) (wheat [7])
CON=C(C)CC1CC(O)=C(c2c(C)cc(-c3ccccn3)cc2C)C1=O (mixture of isomers) [6-051]	4 (Herbicidal ratio of 70% or higher and lower than 90%)	5 (Herbicidal ratio of 90% or more (almost completely withered))	2 (Herbicidal ratio of 20% or higher and lower than 40%)	5 (Herbicidal ratio of 90% or more (almost completely withered))	5 (Herbicidal ratio of 90% or more (almost completely withered))	5 (Herbicidal ratio of 90% or more (almost completely withered))	1 (Herbicidal ratio of 5% or higher and lower than 20%)	2 (Herbicidal ratio of 20% or higher and lower than 40%)	0 (Herbicidal ratio of 5% or lower (almost no effect))	5 (Herbicidal ratio of 90% or more (almost completely withered))	3 (Herbicidal ratio of 40% or higher and lower than 70%)	4 (Herbicidal ratio of 70% or higher and lower than 90%)			
CON=C(C)CC1CC(O)=C(c2c(C)cc(OCc3ccncc3)cc2C)C1=O (mixture of isomers) [6-053]	4 (Herbicidal ratio of 70% or higher and lower than 90%)	3 (Herbicidal ratio of 40% or higher and lower than 70%)	2 (Herbicidal ratio of 20% or higher and lower than 40%)	3 (Herbicidal ratio of 40% or higher and lower than 70%)	2 (Herbicidal ratio of 20% or higher and lower than 40%)	0 (Herbicidal ratio of 5% or lower (almost no effect))	0 (Herbicidal ratio of 5% or lower (almost no effect))	0 (Herbicidal ratio of 5% or lower (almost no effect))	0 (Herbicidal ratio of 5% or lower (almost no effect))	3 (Herbicidal ratio of 40% or higher and lower than 70%)	0 (Herbicidal ratio of 5% or lower (almost no effect))	0 (Herbicidal ratio of 5% or lower (almost no effect))			
CON=C(C)CC1CC(O)=C(c2c(C)cc(-c3ccc(OC(F)(F)F)cc3)cc2C)C1=O (mixture of isomers) [6-056]	3 (Herbicidal ratio of 40% or higher and lower than 70%)	1 (Herbicidal ratio of 5% or higher and lower than 20%)	0 (Herbicidal ratio of 5% or lower (almost no effect))	3 (Herbicidal ratio of 40% or higher and lower than 70%)	0 (Herbicidal ratio of 5% or lower (almost no effect))	0 (Herbicidal ratio of 5% or lower (almost no effect))	0 (Herbicidal ratio of 5% or lower (almost no effect))	0 (Herbicidal ratio of 5% or lower (almost no effect))	0 (Herbicidal ratio of 5% or lower (almost no effect))				3 (Herbicidal ratio of 40% or higher and lower than 70%)	0 (Herbicidal ratio of 5% or lower (almost no effect))	0 (Herbicidal ratio of 5% or lower (almost no effect))
